Source: ChEMBL document CHEMBL5385913, “First-in-Class Dual EZH2-HSP90 Inhibitor Eliciting Striking Antiglioblastoma Activity In Vitro and In Vivo” (J Med Chem, 2024)
Calls of active or inactive are those of the source. The rule behind the calls is not given here.

Assays:
[1] = system: GBM; assay: Antitumor activity against TMZ-resistant patient-derived human GBM cells xenografted in NOD.CB17-Prkdcscid/NCrCrl mouse assessed as reduction in tumor growth at 5 to 15 mg/kg, ip treated twice per week in presence of Tazemetostat; format: functional, organism-based; settings: dose 5-15 mg/kg
[2] = Toxicity in NOD.CB17-Prkdcscid/NCrCrl mouse xenografted with TMZ-resistant patient-derived human GBM cells at 5 to 15 mg/kg, ip treated twice per week in presence of Tazemetostat; format: organism-based; settings: in vivo, dose 5-15 mg/kg

## CC(C)c1cc(-c2n[nH]c(=O)n2-c2ccc3c(ccn3C)c2)c(O)cc1O [GANETESPIB]
[1]
  Activity: Active
[2]
  Activity: Toxic
